Three compounds from US6133266A, “3,4-disubstituted phenylethanolaminotetralincarboxamide derivatives” (Kissei Pharmaceutical Co., Ltd., priority 1996, dated 2000) can be followed below.

Counter-ions that a name gives are not always drawn.

By EC50 is commonly meant the midpoint of the concentration-response curve.

One data set addresses T1, β2 -adrenergic receptor (Rattus norvegicus, UniProt P10608).
T1 construct: longitudinal uterine muscle strips (about 15 mm in length and about 5 mm in width); from tissue; host or cells: longitudinal uterine muscle strips of pregnant SD rat (day 21)
The data set can be described thus: Action of drugs on the spontaneous contractions of isolated myometria (isolated rat pregnant uterus). The class given is cell-based. Particulars: isolated pregnant SD rat uterus (pregnancy day 21), Magnus method, 37° C.; read-out: EC50, activity to relax 50% of the spontaneous contractions of rat myometrium. As for the experimental part: Thus, the compounds of the present invention have markedly potent β2 -adrenergic receptor stimulating effect and therefore are remarkably useful as β2 -adrenergic receptor stimulating agents.
Action of drugs on the spontaneous contractions of isolated myometria
The uterus of a pregnant SD rat (pregnancy day of 21) was isolated and longitudinal uterine muscle strips (about 15 mm in length and about 5 mm in width) free from the basal plate were prepared. The experiment was conducted according to the Magnus method. The preparations were mounted with a tension of 1 g in Locke-Ringer solution maintained at 37° C. and gassed with a mixture of 95% of oxygen and 5% of carbon dioxide. Spontaneous contractions of the myometrium were induced isometrically via a pressure transducer and recorded on a rectigram. The efficacy was evaluated by comparing the total degree of uterine contraction during 5 minutes before the addition of the drug with the total degree of uterine contraction during 5 minutes after the addition of the drug and calculating the 50% inhibitory concentration as EC50.

A further data set has as its system β1 -adrenergic receptor. The data set can be described thus: Action of drugs on the atrial contractions of isolated atria (isolated rat atrium). The following applies: isolated atria of SD male rats, Magnus method, 37° C. The class given is cell-based. As for the experimental part:
Thus, the compounds of the present invention have markedly weak β1 -adrenergic receptor stimulating effect in comparison with the aforementioned β2 -adrenergic receptor stimulating effect.
Action of drugs on the atrial contractions of isolated atria The atria of SD male rats (350 to 400 g in body weight) were isolated and the experiment was conducted according to the Magnus method. The preparations were mounted with a tension of 1 g in Krebs-Henseleit solution maintained at 37° C. and gassed with a mixture of 95% of oxygen and 5% of carbon dioxide. The atrial contraction was induced isometrically via a pressure transducer and recorded on a rectigram. After addition of the drug, its efficacy was evaluated by calculating EC20 value which is the drug concentration which increases 20 beats per minute of heart rate.

The next data set relates to male ICR mice. The experiment in a line: Acute toxicity. The format is in vivo. Particulars: 5 male ICR mice, intravenously in saline, 20 mg/kg, during 24 hours after the administration. As for the experimental part:
To 5 male ICR mice of 4 weeks age was administered intravenously 2-[(2S)-2-[[(2R)-2-hydroxy-2-(4-hydroxy-3hydroxymethylphenyl)ethyl]amino]- 1,2,3,4-tetrahydronaphthalen-7-yloxy]-N,N-dimethylacetamide 0.5 sulfate in saline at dose of 20 mg/kg.

T1 sequence (P10608 whole entry): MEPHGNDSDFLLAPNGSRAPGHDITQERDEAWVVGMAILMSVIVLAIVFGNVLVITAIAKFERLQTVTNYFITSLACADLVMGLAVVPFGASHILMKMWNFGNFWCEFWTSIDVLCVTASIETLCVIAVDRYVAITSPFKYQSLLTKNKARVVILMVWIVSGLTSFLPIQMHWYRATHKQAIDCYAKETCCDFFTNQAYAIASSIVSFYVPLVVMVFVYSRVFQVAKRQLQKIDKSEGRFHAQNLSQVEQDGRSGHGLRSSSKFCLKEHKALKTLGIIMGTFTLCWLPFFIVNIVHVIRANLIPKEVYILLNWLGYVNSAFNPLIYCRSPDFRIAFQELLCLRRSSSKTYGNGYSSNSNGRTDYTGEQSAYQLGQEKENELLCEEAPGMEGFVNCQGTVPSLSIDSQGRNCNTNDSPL

For `CN(C)C(=O)COc1ccc2c(c1)C[C@@H](NCC(O)c1ccc(O)c(CO)c1)CC2` (mixture of isomers) [Compound 1, 2-[(2S)-2-[[(2RS)-2-Hydroxy-2-(4-hydroxy-3-hydroxymethylphenyl)ethyl]amino]-1,2,3,4-tetrahydronaphthalen-7yloxy]-N,N-dimethylacetamide], the EC50 at β2 -adrenergic receptor is 5.3 nM. Further, the “EC20 value, activity to increase 20 beats per minute of rat heart rate” value in the data set with β1 -adrenergic receptor is listed as 2.5×10^-6 mol concentration. The matching figures for `CN(C)C(=O)COc1ccc2c(c1)C[C@@H](NC[C@H](O)c1ccc(O)c(CO)c1)CC2` [Compound 6, (-)-2-[(2S)-2-[[(2R)-2-Hydroxy-2-(4-hydroxy-3-hydroxymethylphenyl)ethyl]amino]-1,2,3,4-tetrahydronaphthalen-7-yloxy]-N,N-dimethylacetamide]: 2.6 nM and 9.4×10^-7 mol concentration. As to `CN(C)C(=O)COc1ccc2c(c1)C[C@@H](NC[C@H](O)c1ccc(O)c(CO)c1)CC2` [Compound 19, (-)-2-[(2S)-2-[[(2R)-2-Hydroxy-2-(4-hydroxy-3-hydroxymethylphenyl)ethyl]amino]-1,2,3,4-tetrahydronaphthalen-7-yloxy]-N,N-dimethylacetamide 0.5 sulfate], the death of animals result in the data set on male ICR mice is listed as “No death of animals was observed”.
